SMILES strings stand for the structures. “And” between values parts separate entries of the source, which are not always exact repeats. Equal entries are not always repeated.

One assay addresses T1, CD33^C36S (Homo sapiens, UniProt P20138, C36S).
T1 construct: DNA encoding D18 to H143 of human CD33; octa-histidine tag with TEV protease cleavage site (N); made in house
As to the kind of experiment: surface plasmon resonance (SPR), CD33^C36S V-set domain. Type of assay: binding. As to conditions: P22 as analyte, captured CD33^C36S; 1:1 steady state model. The method, then:
(§1) We next performed surface plasmon resonance (SPR) measurements on P22 binding to CD33 wild-type, and selected mutants, to obtain detailed kinetic data (see Transparent Methods). The CD33 V-set domain has a free cysteine residue (C36), which caused anomalous results in some of our SPR experiments due to disulfide-linked oligomers forming in solution.
(§2) Figure 3 P22 Binding to CD33 Wild-Type and Mutants (A) An example of affinity analysis for 1–243 μM (3-fold dilutions) of P22 binding to immobilized CD33^C36S. Data obtained in duplicate using single-cycle analysis and fit to a steady-state binding model to determine the equilibrium binding constant. (B) An example of affinity analysis of P22 binding to immobilized CD33 wild-type (WT) as per example in (A). (C) Sensorgram data for 0.01–9 μM (3-fold dilutions) of CD33^C36S binding to immobilized P22. Data obtained in triplicate using single concentration cycles and fit to a 1:1 binding model for kinetic analysis. (D) Sensorgram data for 0.03–9 μM (3-fold dilutions) CD33 WT binding to immobilized P22. Data obtained in triplicate using single concentration cycles and fit to a bivalent analyte model for kinetic analysis. Measurements in triplicate showing mean ± SD. […] Data presented are representative of three independent experiments performed in quadruplicate for each compound. […]

A further assay has as its target T2, CD33 wild-type (Homo sapiens, UniProt P20138).
T2 construct: DNA encoding D18 to H143 of human CD33; made in house
As to the kind of experiment: surface plasmon resonance (SPR), CD33 wild-type V-set domain. As to conditions: P22 as analyte, immobilized CD33 wild-type; 1:1 steady state model. Type of assay: binding. On the procedure: as §1, §2

T1 sequence (P20138 18-143 C36S): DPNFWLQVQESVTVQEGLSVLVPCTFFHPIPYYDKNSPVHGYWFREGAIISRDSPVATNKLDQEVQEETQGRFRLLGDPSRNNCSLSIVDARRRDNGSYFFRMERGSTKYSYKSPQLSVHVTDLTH
T2 sequence (P20138 18-143): as the sequence (P20138 18-143 C36S) above, with S19C counted along it

With `Cc1cc(C(=O)NC[C@@H](O)[C@@H](O)[C@@H]2O[C@@](OC[C@H]3O[C@@H](O[C@H]4[C@H](O)[C@@H](O)[C@H](OCCN)O[C@@H]4CO)[C@H](O)[C@@H](O)[C@H]3O)(C(=O)O)C[C@H](O)[C@H]2NC(=O)Cn2cc(C3CCCCC3)nn2)cc(C)c1O` [P22, β-D-Glucopyranoside, 2-aminoethyl O-[N-[2-(4-cyclohexyl-1H-1,2,3-triazol-1-yl)acetyl]-9-deoxy-9-[(4-hydroxy-3,5-dimethylbenzoyl)amino]-α-neuraminosyl] (2→6)-O-β-D-galactopyranosyl-(1→4)-], the Kd is 95 µM and 95.2 µM at CD33^C36S; 118 ± 41 µM at CD33 wild-type.

The values above are taken from PMC6669322, “Small Molecule Binding to Alzheimer Risk Factor CD33 Promotes Aβ Phagocytosis” (iScience, 2019).
